Measurements taken from ChEMBL document CHEMBL1201862, “PubChem BioAssay data set” (2004).
Activity calls are given as the source filed them.

How the values were obtained:
[1] = THP-1 cell cytotoxicity, dose response, cytotoxicity control for non-replicating M. tuberculosis project (AID 489025); format: functional
INS1 = experiment: beta cell apoptosis inhibitors, cytokine rescue, dose response, luminescence, retest (AID 449756); format: functional, cell-based; conditions: Rattus norvegicus;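 further: cell death triggered by IL-1 beta plus TNF-alpha plus IFN-gamma mixture; protective hits raise ATP signal compared with cytokine alone wells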
[2] = Vero E6 cell cytotoxicity, dose response, cytotoxicity control for non-replicating M. tuberculosis project, secondary assay (AID 492998); format: functional, VeroE6; conditions: Vero C1008
[3] = HepG2 cell cytotoxicity, dose response, cytotoxicity control for non-replicating M. tuberculosis project (AID 489018); format: functional; conditions: Mycobacterium tuberculosis
cells [4] = format: functional
[5] = molecular target: T1, Rac GTPase-activating protein 1 (Homo sapiens, UniProt Q9H0H5); experiment: MgcRacGAP GTPase-activating activity inhibitors, confirmation, biochemical, ADP Hunter fluorescence, primary and confirmatory (AID 624330); format: functional
T1 sequence (Q9H0H5 whole entry): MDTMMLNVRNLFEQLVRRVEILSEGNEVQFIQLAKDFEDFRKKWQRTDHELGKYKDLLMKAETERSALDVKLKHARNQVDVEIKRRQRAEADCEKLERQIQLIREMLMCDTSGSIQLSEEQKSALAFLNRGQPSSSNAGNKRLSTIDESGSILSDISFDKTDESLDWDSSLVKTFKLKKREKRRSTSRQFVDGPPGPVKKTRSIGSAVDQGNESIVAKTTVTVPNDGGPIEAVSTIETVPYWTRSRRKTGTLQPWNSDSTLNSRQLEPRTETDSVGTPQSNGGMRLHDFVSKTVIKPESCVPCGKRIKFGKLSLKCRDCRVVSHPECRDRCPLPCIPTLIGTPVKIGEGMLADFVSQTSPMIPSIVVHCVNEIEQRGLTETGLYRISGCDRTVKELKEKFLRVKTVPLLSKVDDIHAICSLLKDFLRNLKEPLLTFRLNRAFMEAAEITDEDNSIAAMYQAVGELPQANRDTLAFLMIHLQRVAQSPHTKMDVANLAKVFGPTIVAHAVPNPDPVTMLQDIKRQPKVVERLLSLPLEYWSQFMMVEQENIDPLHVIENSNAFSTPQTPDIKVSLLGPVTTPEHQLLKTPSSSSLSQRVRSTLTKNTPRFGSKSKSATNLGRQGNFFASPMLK

[6] = molecular target: DNA dC->dU-editing enzyme APOBEC-3G (Homo sapiens, UniProt Q9HC16); experiment: Dose Response confirmation of small molecule APOBEC3G DNA Deaminase Inhibitors via a fluorescence-based single-stranded DNA deaminase assay. [Related pubchem assays (depositor defined):AID493012, AID493028]; format: functional
[7] = luciferase reporter signal reduction – luminescence, H4-C neuroglioblastoma cells, dose response (AID 2458); format: functional, cell-based;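 further: H4 neuroglioblastoma cells stably carrying a luciferase reporter gene fusion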
Paired box protein Pax-8 = Paired box protein Pax-8 (Homo sapiens, UniProt Q06710); experiment: inhibitors of PAX8-driven TPO luciferase reporter, dose response, RMG-I cells, cherry-pick (AID 687027); format: functional, cell-based;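 further: luciferase reporter driven by Pax8 target thyroperoxidase promoter measured by SteadyGlo luminescence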
[8] = HepG2 cell cytotoxicity, dose response, cytotoxicity control for Shn3 inhibitor project, CellTiter-Glo, cherry-picked (AID 624134); format: functional, cell-based
[9] = inhibitors of SNCA 5'UTR-driven reporter translation, confirmation, H4 neuroglioma cells, luminescence (AID 1988); format: functional, cell-based
[10] = inhibitors of SNCA 5'UTR-driven translation, confirmation, luminescence, H4 neuroglioblastoma cells, dose confirmation (AID 2454); format: functional, cell-based;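 further: H4 neuroglioblastoma cells carrying an alpha-synuclein 5'UTR luciferase reporter; potency for inhibition of the luciferase signal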
[11] = growth suppression of PTEN-null colon cells, dose response, cell-based, HCT116 PTEN knockout (AID 1047); format: functional;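 further: HCT116 colon tumor cells with PTEN knocked out; cells exposed to compound for 60 hours before readout; potency for loss of cell viability measured by luminescence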
[12] = Luminescence Cell-Based Dose Response HTS to Identify Inhibitors of 5'UTR Stem-Loop Driven Prion Protein mRNA Translation in H4 Neuroglioblastoma Cells. [Related pubchem assays: 1827 (Project Summary), 1813 (Primary HTS)]; format: functional
[13] = growth suppression of beta-catenin-knockout colon cells, dose response, cell-based, HCT116, human colon tumor (AID 1045); format: functional;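 further: HCT116 colon tumor cells with beta catenin knocked out; cells exposed to compound for 60 hours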
[14] = control 3'UTR Renilla luciferase suppression, dose response, counter-screen for Shn3 inhibitor project, cell-based, Clone20-Shn3RL, cherry-picked (AID 624133); format: functional
cells [15] = format: functional, cell-based
[16] = Shn3 3'UTR reporter inhibitors, dose response, cell-based, Clone20 osteoblasts, firefly luciferase, cherry-picked (AID 624132); format: functional;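 further: firefly luciferase luminescence from reporter carrying the Shn3 3'UTR in osteoblasts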
[17] = inhibitors of firefly luciferase expression or activity, dose response, H4 neuroglioma cells, luminescence (AID 1990); format: functional, cell-based
[18] = THP-1 cell cytotoxicity, dose response, cytotoxicity control for Vif-APOBEC3G degradation inhibitor project, THP-1 cells (AID 1117359); format: functional; conditions: Human immunodeficiency virus 1, THP-1
[19] = C. albicans growth with fluconazole, confirmation, fluorescence, retest (AID 2467); format: functional, cell-based
[20] = ADAM10 protease inhibitors, dose response, selectivity assay for ADAM17 exosite inhibitor project, biochemical, FRET peptide substrate, recombinant human ADAM10 (AID 743259);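 further: ADAM10 enzyme cleaving a FRET peptide substrate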
[21] = NIH-3T3 fibroblast cytotoxicity, dose response, cytotoxicity control, cell-based, fluorescence, Alamar Blue, secondary assay (AID 2327); format: functional;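 further: NIH-3T3 mouse fibroblasts cultured with fluconazole at 8 µg/mL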
[22] = molecular target: Disintegrin and metalloproteinase domain-containing protein 17 (Homo sapiens, UniProt P78536); experiment: exosite inhibitors of ADAM17, dose response, biochemical (AID 743260)
[23] = molecular target: Heat shock protein HSP 90-alpha (Homo sapiens, UniProt P07900); format: functional, organism-based
[24] = Luminescence Cell-Based Dose Confirmation HTS to Identify Activators of 5'UTR Stem-Loop Driven Alpha-Synuclein mRNA Translation in H4 Neuroglioblastoma Cells. [Related pubchem assays: 1829 (Project Summary), 1814 (Primary HTS)]; format: functional
[25] = Luminescence Cell-Based Dose Response HTS to Identify Activators of Luciferase Translation or Activity in H4 […] Cells. [Related pubchem assays: 1829 (Project Summary), 1814 (Primary HTS)]; format: functional
[26] = Luminescence Cell-Based Dose Response to Identify Activators of Luciferase Translation or Activity in H4-C Neuroglioblastoma Cells. [Related pubchem assays: 1829 (Project Summary), 1814 (Primary HTS)]; format: functional
[27] = Luminescence Cell-Based Dose Confirmation to Identify Activators of 5'UTR Stem-Loop Driven Alpha-Synuclein mRNA Translation in H4 Neuroglioblastoma Cells. [Related pubchem assays: 1829 (Project Summary), 1814 (Primary HTS)]; format: functional
H4 = experiment: Luminescence Cell-Based Dose Response HTS to Identify Activators of 5'UTR Stem-Loop Driven Prion Protein mRNA Translation in H4 Neuroglioblastoma Cells. [Related pubchem assays: 1829 (Project Summary), 1814 (Primary HTS)]; format: functional; conditions: Homo sapiens
[28] = microbe, parasite or virus in culture; format: functional; conditions: Mycobacterium tuberculosis
[29] = Luminescence Cell-Based Dose Response to Identify Activators of 5'UTR Stem-Loop Driven Prion Protein mRNA Translation in H4-C Neuroglioblastoma Cells. [Related pubchem assays: 1829 (Project Summary), 1814 (Primary HTS)]; format: functional
[30] = cytotoxicity in HEK-293T cells, dose response, cytotoxicity control for TCR NF-kB inhibitor project, luminescence, T-cell screen hits (AID 489026); format: functional, cell-based;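 further: cells exposed to compound about 14 hours before the viability readout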

Paired box protein Pax-8, sequence (Q06710 whole entry): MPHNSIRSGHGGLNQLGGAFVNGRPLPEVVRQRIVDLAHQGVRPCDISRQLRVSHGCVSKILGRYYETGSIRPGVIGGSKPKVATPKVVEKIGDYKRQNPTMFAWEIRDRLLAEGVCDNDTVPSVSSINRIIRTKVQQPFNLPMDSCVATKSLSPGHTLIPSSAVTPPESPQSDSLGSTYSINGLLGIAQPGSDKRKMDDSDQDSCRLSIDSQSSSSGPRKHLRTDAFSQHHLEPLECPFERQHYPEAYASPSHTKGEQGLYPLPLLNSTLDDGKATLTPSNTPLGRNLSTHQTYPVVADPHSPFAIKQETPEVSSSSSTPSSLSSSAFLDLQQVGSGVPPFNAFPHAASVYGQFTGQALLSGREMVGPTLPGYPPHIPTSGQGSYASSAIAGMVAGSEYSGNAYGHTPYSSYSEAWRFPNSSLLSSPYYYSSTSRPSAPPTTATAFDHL
DNA dC->dU-editing enzyme APOBEC-3G, sequence (Q9HC16 whole entry, the tested form may be a part): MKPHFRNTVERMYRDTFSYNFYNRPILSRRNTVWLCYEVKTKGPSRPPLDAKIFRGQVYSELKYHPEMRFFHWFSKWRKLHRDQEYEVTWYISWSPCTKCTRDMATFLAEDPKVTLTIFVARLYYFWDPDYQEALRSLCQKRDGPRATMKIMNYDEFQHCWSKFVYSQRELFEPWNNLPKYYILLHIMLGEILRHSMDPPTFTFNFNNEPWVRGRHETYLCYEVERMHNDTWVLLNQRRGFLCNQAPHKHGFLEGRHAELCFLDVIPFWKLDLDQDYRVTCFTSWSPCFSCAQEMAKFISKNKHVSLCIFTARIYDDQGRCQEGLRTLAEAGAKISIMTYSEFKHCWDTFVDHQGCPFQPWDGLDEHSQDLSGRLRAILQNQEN
Disintegrin and metalloproteinase domain-containing protein 17, sequence (P78536 whole entry, the tested form may be a part): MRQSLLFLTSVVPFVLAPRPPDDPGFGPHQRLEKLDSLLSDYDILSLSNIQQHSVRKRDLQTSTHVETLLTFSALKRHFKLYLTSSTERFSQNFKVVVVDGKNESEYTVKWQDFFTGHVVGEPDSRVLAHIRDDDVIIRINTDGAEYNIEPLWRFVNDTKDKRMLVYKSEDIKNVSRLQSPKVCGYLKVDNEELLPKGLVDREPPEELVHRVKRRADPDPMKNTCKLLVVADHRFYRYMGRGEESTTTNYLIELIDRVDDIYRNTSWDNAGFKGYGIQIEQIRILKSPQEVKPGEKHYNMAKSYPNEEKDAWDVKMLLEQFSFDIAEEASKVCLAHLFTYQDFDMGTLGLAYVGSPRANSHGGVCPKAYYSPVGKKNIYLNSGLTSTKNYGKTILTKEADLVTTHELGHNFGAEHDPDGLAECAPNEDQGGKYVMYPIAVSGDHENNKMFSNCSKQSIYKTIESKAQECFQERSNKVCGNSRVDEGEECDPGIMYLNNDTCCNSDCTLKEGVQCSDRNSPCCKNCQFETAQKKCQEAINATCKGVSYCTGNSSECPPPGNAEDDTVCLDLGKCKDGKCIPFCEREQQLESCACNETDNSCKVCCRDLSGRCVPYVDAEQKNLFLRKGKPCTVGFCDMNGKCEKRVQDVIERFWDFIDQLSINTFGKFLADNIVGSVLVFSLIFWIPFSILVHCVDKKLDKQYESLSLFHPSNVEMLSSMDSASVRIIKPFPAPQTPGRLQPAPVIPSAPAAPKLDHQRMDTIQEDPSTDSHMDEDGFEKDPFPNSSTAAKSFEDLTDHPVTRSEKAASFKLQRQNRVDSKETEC

CCCCCn1c(=O)c(C(=O)Nc2nc3ccccc3[nH]2)c(O)c2ccccc21
active: CC50 [1] 6.69 µM | AC50 (INS1) 6.54 µM | CC50 [2] 6.21 µM | CC50 [3] > 20 µM | IC50 (cells [4]) 7.7 µM

CC(C)Cn1c(-c2ccc(Br)o2)n[nH]c1=S
active: IC50 [5] 105 µM | IC50 [6] 2.83 µM

Cc1cc(C2=NN=C(NC3CC3)SC2)c(C)n1-c1ccccc1F
active: EC50 [7] 5 nM | AC50 (Paired box protein Pax-8) < 260 nM | AC50 [8] 28 µM | EC50 [9] < 100 nM | EC50 [10] 4 nM | EC50 [11] 17.1 µM | EC50 [12] < 100 nM | EC50 [13] 16.7 µM | AC50 [14] 6.07 µM | EC50 (cells [15]) 16 nM | AC50 [16] < 260 nM | EC50 [17] < 100 nM

CCCCN(CCCC)CCCN1CC(=O)N2[C@@H](Cc3c([nH]c4ccccc34)C2(C)C)C1=O
active: CC50 [18] > 40 µM

O=[N+]([O-])CC(c1ccccc1)P(=O)(c1ccccc1)c1ccccc1 (configuration not stated)
active: EC50 [19] 5.58 µM
inactive: IC50 [20] > 69.5 µM | EC50 [21] > 160 µM | IC50 [22] 10.9 µM

Cc1cc(-c2nnc(S)n2/N=C/C(Br)=C/c2ccccc2)[nH]n1
> 12 µM (not active): EC50 [29]
> 120 µM (not active): EC50 (H4)
active: CC50 [1] 11.1 µM | AC50 [23] 10.4 µM | AC50 (Paired box protein Pax-8) 2780 nM | EC50 [24] 77.7 µM | EC50 [25] < 0.1 µM | EC50 [26] 8.65 µM | EC50 [27] 943 nM | EC50 [11] 1.96 µM | EC50 [13] 1.52 µM | CC50 [2] 9.01 µM | CC50 [28] 29.3 µM | CC50 [3] > 20 µM | IC50 (cells [4]) 4.68 µM
inactive: AC50 (INS1) > 60 µM

CCOc1ccc2[nH]c(C(=O)N/N=C/c3ccc(OC)cc3)cc2c1
active: EC50 [7] 1120 nM | EC50 [9] < 100 nM | EC50 [10] 3250 nM | EC50 [12] 273 nM | EC50 (cells [15]) 1400 nM | EC50 [17] 7080 nM

CN(C)c1ccc2c(c1)OC(N)=C(C#N)C2c1cccc(F)c1 (configuration not stated)
inactive: IC50 [30] 40.4 µM
active: EC50 [7] 228 nM | EC50 [9] < 100 nM | EC50 [10] 338 nM | EC50 [12] < 100 nM | EC50 (cells [15]) 233 nM | EC50 [17] < 100 nM

Cc1cc(C)c([N+](=O)[O-])cc1-c1ccc(/C=N/c2c(-c3ccco3)nc3ccccn23)o1
active: EC50 [24] 8.26 µM | EC50 [25] 12 µM | EC50 (H4) 14.8 µM | CC50 [18] 31.6 µM
